# Assay results: ChEMBL document CHEMBL1142656, “Identification of 3-(acylamino)azepan-2-ones as stable broad-spectrum chemokine inhibitors resistant to metabolism in vivo” (2005)
# Tested on: THP-1
# Assay: In vitro activity to inhibit MCP-1-induced leukocyte migration of THP-1 cells
# Format: functional
# Conditions: Homo sapiens, read-out: ED50 (the source's name)
row,EC50 [nM],SMILES
1,100,C=CCCCCCCCCC(=O)N[C@H]1CCCNC1=O
2,33,C=CCCCCCCCCC(=O)N[C@H]1CCC(=O)N(C)C1=O
3,10,C#CCCCCCCCCC(=O)N[C@H]1CCCCNC1=O
4,50,CCCCCCCCCCC(=O)N[C@H]1CCCCNC1=O
5,40000,CCCCCCCCCCC(=O)N[C@H](CCC(=O)O)C(N)=O
6,3,CCCCCC/C=C\CCCCCCCC(=O)N[C@H]1CCCCNC1=O
7,250,C=CCCCCCCCCC(=O)N[C@@H]1CCC(=O)NC1=O
8,10000,CCCCCCCCCCC(=O)N[C@@H](CCC(=O)O)C(=O)O
9,3,CCCCCCCCCCCCCCCC(=O)N[C@H]1CCCCNC1=O
10,40,C=CCCCCCCCCC(=O)N[C@H]1CCCCNC1=O
11,245,C=CCCCCCCCCC(=O)N[C@H]1CCNC1=O
12,15,CCCCCCCCCCCC(=O)N[C@H]1CCCCNC1=O
13,30000,CCCCCCCCCCC(=O)N[C@@H](CCC(N)=O)C(=O)O
14,5,CCCCCCCCCCCCCC(=O)N[C@H]1CCCCNC1=O
15,5,C=CCCCCCCCCC(=O)N[C@H]1CCC(=O)NC1=O
16,3,CCCCCCCC/C=C\CCCCCCCC(=O)N[C@H]1CCCCNC1=O
17,30,CCCCCCCC/C=C\CCCCCCCC(=O)N[C@@H]1CCCCNC1=O
18,50000,CCCCCCCCCCC(=O)N[C@H](CCC(N)=O)C(=O)O
19,25000,CCCCCCCCCCC(=O)N[C@H](CCC(=O)O)C(=O)O
20,15000,CCCCCCCCCCC(=O)N[C@@H](CCC(=O)O)C(N)=O
21,40,CCCCCCCCCCCCCCCC(=O)N[C@@H]1CCCCNC1=O
22,10,"CCCCCCCCCCC(=O)NC1CCC(=O)NC1=O (single isomer, unassigned)"
23,> 100000,N[C@@H](CCCC(=O)O)C(=O)O [(S)-2-AMINOADIPIC ACID]
24,> 100000,N[C@H](CCC(=O)O)C(=O)O [D-GLUTAMATE]
